Like-named read-outs stand apart in the source and are kept apart here.

In general, Km refers to the substrate concentration at which the rate is half of its maximum.

Experiment [1] has as its target T1, PLP-dependent β-cystathionase (osteotoxin) (Bordetella avium, UniProt Q07703).
T1 sequence (Q07703 2-396 limits assumed): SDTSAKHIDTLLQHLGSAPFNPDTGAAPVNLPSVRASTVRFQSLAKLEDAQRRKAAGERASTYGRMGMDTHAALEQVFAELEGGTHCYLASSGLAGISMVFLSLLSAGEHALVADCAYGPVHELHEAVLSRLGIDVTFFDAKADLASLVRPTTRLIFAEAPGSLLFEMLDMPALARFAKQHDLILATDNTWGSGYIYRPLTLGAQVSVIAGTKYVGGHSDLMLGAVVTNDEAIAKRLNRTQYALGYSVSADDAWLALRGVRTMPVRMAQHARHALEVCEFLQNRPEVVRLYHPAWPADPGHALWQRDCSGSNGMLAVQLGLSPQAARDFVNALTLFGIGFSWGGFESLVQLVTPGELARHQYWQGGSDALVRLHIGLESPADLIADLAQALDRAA
The settings on record: cited from earlier work.

Experiment [2] relates to cystalysin. The settings on record: substrate cleavage by cystalysin; cited from earlier work.
For experiment [3], the system named is cystalysin. In words: Spectral measurement of cystalysin after treatment with AVG. It counts as biochemical, Treponema denticola. The conditions noted are these: chromophore at 336 nm formed simultaneously, spectra at 20°C in 100 mM phosphate buffer. As to the method:
PLP-dependent enzymes catalyzing β-elimination reactions are known to be inhibited by a number of β,γ-unsaturated amino acids like the natural toxins rhizobitoxin (Owens et al., 1968) and L-aminoethoxyvinylglycine (AVG) (Pruess et al., 1974), that act as so-called slow-binding inhibitors (Morrison and Walsh, 1988). […] Spectral and fluorescence measurements lead to similar observations for cystalysin after incubation with AVG (Figure 4A). […] The inhibitor is mainly bound by hydrogen bonds to its carboxylate oxygens which originate from Ala39, Asn 175 and Arg369 (Figure 4C). […] Hydrophobic interactions are with Tyr64* and Phe273* which are in van-der-Waals contact to the carbon atoms CFI, CEI and CGI. Contrary for CBL, the amino-tail of the inhibitor is not bound to Tyr123, but stretched out in opposite direction towards a large hydrophobic cavity formed by the residues Leu17, Val38, Typ64* and Phe273* that is absent in CBL. […]
(A) The spectra of uncomplexed cystalysin and cystalysin after treatment with AVG, recorded at 20°C in 100 mM phosphate buffer. (B) Final 2Fo-Fc electron density of the PLP-AVG complex (yellow) and the intermediate protein vicinity (color-coding by atom type), contoured at 1.2 σ and calculated at 2.5 Å resolution. […]

The test system of experiment [4] is cystalysin. In words: Loss of cystalysin enzyme activity through AVG. It counts as biochemical, Treponema denticola. The settings on record: dead end ketimine PLP derivative formed with AVG. The method, then:
Overall, the PLP cofactor remains fixed in position with only the pyridine ring rotated slightly (≤ 10°), while no major structural changes regarding domain movement have been observed. These findings are contradicting an open/closed mechanism upon substrate binding, since the cystalysin-AVG structure should resemble the physiological enzyme-substrate complex. Due to the similarities in inhibition pattern and spectral changes, AVG should act on cystalysin in a similar manner as reported for CBL (Clausen et al., 1997). After transaldimination, a proton transfer from C^α to C4' is mediated by the deprotonated ε-amino group of the released Lys238, instead of protonating the leaving group. The resulting "dead end" ketimine PLP derivative is responsible for the observed 336 nm-chromophore and the total loss of enzyme activity. The inability of cystalysin to catalyze a transamination of this ketimine also accounts for the high stability of the final intermediate.

Experiment [5] concerns the target cystathionine β-lyase (CBL) (Escherichia coli, UniProt P06721). The settings on record: upon treatment with AVG; cited from earlier work.

Chain of cystathionine β-lyase (CBL) (P06721 2-395): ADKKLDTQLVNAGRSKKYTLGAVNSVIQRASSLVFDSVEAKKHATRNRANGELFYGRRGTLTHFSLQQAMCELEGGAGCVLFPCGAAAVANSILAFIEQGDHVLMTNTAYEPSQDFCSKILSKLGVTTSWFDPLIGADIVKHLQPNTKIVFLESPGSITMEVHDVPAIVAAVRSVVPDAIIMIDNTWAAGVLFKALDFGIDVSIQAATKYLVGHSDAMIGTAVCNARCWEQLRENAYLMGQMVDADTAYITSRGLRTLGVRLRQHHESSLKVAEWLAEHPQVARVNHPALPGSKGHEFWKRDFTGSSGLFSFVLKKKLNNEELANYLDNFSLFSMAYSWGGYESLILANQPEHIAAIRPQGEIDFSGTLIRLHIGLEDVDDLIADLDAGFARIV

As to `N[C@@H](CS)C(=O)O` [cysteine], the results for the Michaelis-Menten constant (Km) (in experiment [1] (highest affinity substrate); in experiment [1] (weak affinity substrate); with cystalysin [2]) were 0.077 mM, 5 mM and 3.6 mM, respectively. The Kcat with cystalysin [2] is 12 s⁻¹.
On to `NCCO/C=C/[C@H](N)C(=O)O` [AVG, L-aminoethoxyvinylglycine], for which the “pyridoxaldimine absorbance of the active enzyme at 419 nm” value in the experiment with cystalysin [3] is “rapid and complete loss”. Further, the enzyme activity entry in the experiment with cystalysin [4] is reported as “total loss”. The “interaction with CBL” value in experiment [5] is listed as “time-dependent formation of a long-lived, slowly dissociating enzyme-inhibitor compolex”.
